Measured values reported in patent US7776844B2, “N-(phosphonoalkyl)-amino acids, derivatives thereof and compositions and methods of use” (priority 2006, dated 2010).
Read-outs that look alike come from different tables or passages of the source.

What was measured:
[1] = tested on: X-linked ichthyosis with severe dry skin; test: Topical treatment of X-linked ichthyosis / severe dry skin, clinical evaluation; format: in vivo; conditions: Homo sapiens, read-out: improvement in contrast to untreated or vehicle control, clinical evaluation
Text: For example, human subjects having severe dry skin or ichthyosis, topically applied 1%-5% N-(phosphonomethyl)-glycine creams to lesions for 2 to 3 weeks. After 2 to 3 weeks of topical application, the thick and scaly skin disappeared and the skin became smooth and normal in appearance. Clinical evaluation was judged to be 90% to 100% improvement compared to the untreated condition or when using a vehicle control.
(§1) The present invention will now be described in more detail with reference to the following non-limiting examples. In the initial tests for comparative studies, a control vehicle was always included. It was discovered that all the vehicle controls gave the same results as that of the untreated skin sites; no detectable effects of the controls have been found as judged by clinical evaluation.
(§2) For subjective disorders such as pain, itch or the like, the therapeutic effects were evaluated or judged by the subjects or patients; for example, if the pain or itch had disappeared within hours or days. For other detectable symptoms or syndromes, the therapeutic effects or improvements were evaluated or judged by medical professionals.
N-(phosphonomethyl)-glycine (5 g) was suspended in water (30 ml) and propylene glycol (10 ml), and concentrated ammonium hydroxide (2 ml) was added with stirring. The suspension became a clear solution, and was mixed with hydrophilic ointment (oil-in-water emulsion, 53 g). The white cream thus formulated had pH 3.8 and contained 5% N-(phosphonomethyl)-glycine. A subject who had X-linked ichthyosis with severe dry skin, having thick and rough skin with adherent scales, topically applied the above 5% N-(phosphonomethyl)-glycine cream to an involved skin site twice daily for two weeks. After one week of topical application, the adherent scales disappeared, and the skin became smooth and had 50% improvement in contrast to the untreated or vehicle control as judged by clinical evaluation. After two weeks of topical application, the treated skin became normal in appearance, and had 100% improvement in contrast to the untreated or vehicle control as judged by clinical evaluation.
A subject who had X-linked ichthyosis with severe dry skin, having thick and rough skin with adherent scales, topically applied the above 5% N-(phosphonomethyl)imino-diacetic acid cream to an involved skin site twice daily for two weeks. After one week of topical application, most adherent scales disappeared and the skin had 50% improvement in contrast to the untreated or vehicle control as judged by clinical evaluation. After two weeks of topical application, the scales disappeared completely and the treated skin became smooth, and had 90% improvement in contrast to the untreated or vehicle control as judged by clinical evaluation.
A subject who had X-linked ichthyosis with severe dry skin, having thick and rough skin with adherent scales, topically applied the above 5% N-(phosphonomethyl)-L-tyrosine cream to an involved skin site twice daily for 12 days. After 12 days of topical application, most adherent scales disappeared and the skin became smooth, and had 75% improvement in contrast to the untreated or vehicle control as judged by clinical evaluation.
A subject who had X-linked ichthyosis having thick and rough skin with adherent scales, topically applied the 5% N-(phosphonomethyl)-DL-asparagine cream to an involved skin site twice daily for three weeks. After one week of topical application, most adherent scales disappeared and the treated site appeared smooth. The skin had 75% improvement in contrast to the untreated or vehicle control as judged by clinical evaluation. After three weeks of topical application, the scales disappeared completely and the treated site felt smooth and normal in appearance. The skin had 100% improvement in contrast to the untreated or vehicle control as judged by clinical evaluation. […]

hyperpigmented dark skin = test: Topical skin lightening of hyperpigmented dark skin, clinical evaluation; format: in vivo, human
Protocol: as §1, §2
A subject who had hyperpigmented dark skin, topically applied 5% N-(phosphonomethyl)-DL-asparagine cream prepared according to Example 7 to an involved skin site twice daily for four weeks. […] The treated site was 25% lighter in skin color in contrast to the untreated or vehicle control as judged by clinical evaluation. After four weeks of topical application, the treated site had substantial reduction in skin pigmentation. The treated site was 50% lighter in contrast to the untreated or vehicle control in skin color as judged by clinical evaluation.
A subject who had hyperpigmented dark skin, topically applied the above 5% N-(phosphonomethyl)-DL-asparagine solution to an involved skin site once every other day with occlusion for ten days. […] The treated site was 25% lighter in skin color as judged by clinical evaluation. After ten days of topical application, the treated site had substantial reduction in skin pigmentation. The treated site was 50% lighter in skin color in contrast to the untreated or vehicle control as judged by clinical evaluation.
(§3) A subject who had hyperpigmented dark skin, topically applied the above 5% N-(phosphonomethyl)-creatine solution to an involved skin site once every other day with occlusion for two weeks. […] The treated site was 25% lighter in skin color in contrast to the untreated or vehicle control as judged by clinical evaluation. After two weeks of topical application, the treated site had very substantial reduction in skin pigmentation. The treated site was 75% lighter in skin color in contrast to the untreated or vehicle control as judged by clinical evaluation.
as §3, with “N-(phosphonomethyl)-glycinamide” for “N-(phosphonomethyl)-creatine”, “had” for “had very”, “50%” for “75%”
A subject who had hyperpigmented dark skin, topically applied the above 5% N-(phosphonomethyl)-L-glutamine solution to an involved skin site once every other day with occlusion for two weeks. After two weeks of topical application, the treated site had substantial reduction in skin pigmentation. The treated site had 50% lighter in skin color in contrast to the untreated or vehicle control as judged by clinical evaluation.

chronic plaque psoriasis = test: Topical treatment of chronic plaque psoriasis lesion, clinical evaluation; format: in vivo; conditions: Homo sapiens, read-out: improvement in contrast to untreated or vehicle control, clinical evaluation
Protocol: as §1, §2
(§4) A subject had chronic plaque psoriasis with erythema, moderately thick and silvery scales. The subject topically applied twice daily the above white cream containing 5% N-(phosphonomethyl)-glycine ethyl ester to one psoriatic lesion for two weeks. At the end of two weeks, the erythema and silvery scales improved substantially, and the treated skin had 50% improvement in contrast to the untreated or vehicle control as judged by clinical evaluation.
as §4, with “10% N-(phosphonomethyl)-L-proline” for “5% N-(phosphonomethyl)-glycine ethyl ester”, “improved very” for “improved”, “75%” for “50%”
as §4, with “N-(phosphonomethyl)-glycine propyl” for “N-(phosphonomethyl)-glycine ethyl”, “improved very” for “improved”, “had 75%” for “had 50%”
as §4, with “N-(phosphonomethyl)-glycine isopropyl” for “N-(phosphonomethyl)-glycine ethyl”, “for a week.” for “for two weeks.”, “of one week,” for “of two weeks,”
as §4, with “8% N-(phosphonomethyl)-glycinamide” for “5% N-(phosphonomethyl)-glycine ethyl ester”, “three” for “two”, “disappeared almost completely,” for “improved substantially,”, “90%” for “50%”
as §4, with “N-(phosphonomethyl)-L-tyrosine” for “N-(phosphonomethyl)-glycine”, “noticeably” for “substantially,”, “25%” for “50%”
A subject had chronic plaque psoriasis with erythema, moderately thick and silvery scales. The subject topically applied twice daily the above white cream containing 10% N-(phosphonomethyl)-D-4-hydroxyphenylglycine to one psoriatic lesion for two weeks. […]

itchy eczema = test: Topical relief of itch in itchy eczema, judged by subject; format: in vivo, human; conditions: for therapeutic evaluation, effective for immediate relief of itch: single topical application
Protocol: as §1, §2
A subject, having itchy eczema on their right thigh, topically applied the above 8% N-(phosphonomethyl)-L-proline ethyl ester cream. […] Therapeutic evaluation was judged to be 100% effective in contrast to the untreated or vehicle control for immediate relief of itch.
A subject, having itchy eczema on their left leg, topically applied 7% N-(phosphonomethyl)-creatine cream prepared according to Example 17. […] Therapeutic evaluation was judged to be 100% effective in contrast to the untreated or vehicle control for immediate relief of itch.
A subject, having itchy eczema on their left thigh, topically applied the above 10% N-(phosphonomethyl)-glutamine. […] Therapeutic evaluation was judged to be 100% effective in contrast to the untreated or vehicle control for immediate relief of itch.

[2] = 5% solution once every other day with occlusion, after seven days
[3] = 5% solution once every other day with occlusion, after two weeks
[4] = 168 h, 5% cream twice daily, after one week
[5] = 336 h, 5% cream twice daily, end of two weeks

NC(=O)CC(NCP(=O)(O)O)C(=O)O (racemic) [N-(phosphonomethyl)-DL-asparagine]
inhibition in vivo at 5 % ([1]; 168 h): 75% | inhibition in vivo at 5 % ([1]; 504 h): 100% | treated site lighter in skin color, clinical evaluation (hyperpigmented dark skin; 5% cream twice daily, after four weeks): 50% | treated site lighter in skin color, clinical evaluation (hyperpigmented dark skin; 5% cream twice daily, after two weeks): 25% | treated site lighter in skin color, clinical evaluation (hyperpigmented dark skin; [2]): 25% | treated site lighter in skin color, clinical evaluation (hyperpigmented dark skin; 5% solution once every other day with occlusion, after ten days): 50%

O=C(O)[C@H](NCP(=O)(O)O)c1ccc(O)cc1 [N-(phosphonomethyl)-D-4-hydroxyphenylglycine]
inhibition in vivo at 10 % (chronic plaque psoriasis; 336 h, 10% cream twice daily, end of two weeks): 70%

O=C(O)CC[C@H](NCP(=O)(O)O)C(=O)O [N-(phosphonomethyl)-L-glutamic acid]
inhibition in vivo at 8 % (chronic plaque psoriasis; 336 h, 8% cream twice daily, end of two weeks): 50%

NC(=O)CC[C@H](NCP(=O)(O)O)C(=O)O [N-(phosphonomethyl)-L-glutamine]
inhibition in vivo at 5 % ([1]; 336 h, 5% solution once every other day (occlusion not stated), after two weeks): 75% | inhibition in vivo at 5 % ([1]; 504 h, 5% solution once every other day (occlusion not stated), after three weeks): 100% | treated site lighter in skin color, clinical evaluation (hyperpigmented dark skin; [3]): 50% | time the treated skin did not itch after application (itchy eczema; 10% cream): 8 h | time until itch disappeared after topical application (itchy eczema; 10% cream): within a few minutes | therapeutic evaluation, effective for immediate relief of itch (itchy eczema; 10% cream): 100%

CCOC(=O)[C@@H]1CCCN1CP(=O)(O)O [N-(phosphonomethyl)-L-proline ethyl ester]
time the treated skin did not itch after application (itchy eczema; 8% cream): 8 h | time until itch disappeared after topical application (itchy eczema; 8% cream): within a few minutes | therapeutic evaluation, effective for immediate relief of itch (itchy eczema; 8% cream): 100%

O=C(O)[C@@H]1CCCN1CP(=O)(O)O [N-(phosphonomethyl)-L-proline]
inhibition in vivo at 10 % (chronic plaque psoriasis; 336 h): 75%

CCOC(=O)[C@H](Cc1ccc(O)cc1)NCP(=O)(O)O [N-(phosphonomethyl)-L-tyrosine ethyl ester]
inhibition in vivo at 5 % [1, 4]: 25% | inhibition in vivo at 5 % (chronic plaque psoriasis; [5]): 25%

O=C(O)[C@H](Cc1ccc(O)cc1)NCP(=O)(O)O [N-(phosphonomethyl)-L-tyrosine]
inhibition in vivo at 5 % ([1]; 288 h, 5% cream twice daily, after 12 days): 75%

CN(CC(=O)O)C(=N)NCP(=O)(O)O [N-(phosphonomethyl)-creatine]
inhibition in vivo at 5 % ([1]; 240 h): 50% | inhibition in vivo at 5 % ([1]; 336 h): 100% | treated site lighter in skin color, clinical evaluation (hyperpigmented dark skin; [2]): 25% | treated site lighter in skin color, clinical evaluation (hyperpigmented dark skin; [3]): 75% | time the treated skin did not itch after application (itchy eczema; 7% cream): 8 h | time until itch disappeared after topical application (itchy eczema; 7% cream): within a few minutes | therapeutic evaluation, effective for immediate relief of itch (itchy eczema; 7% cream): 100% | inhibition in vivo at 5 % (chronic plaque psoriasis; 336 h): 50%

NCC(=O)NCP(=O)(O)O [N-(phosphonomethyl)-glycinamide]
inhibition in vivo at 5 % ([1]; 168 h): 75% | inhibition in vivo at 5 % ([1]; 504 h): 100% | treated site lighter in skin color, clinical evaluation (hyperpigmented dark skin; [2]): 25% | treated site lighter in skin color, clinical evaluation (hyperpigmented dark skin; [3]): 50% | inhibition in vivo at 8 % (chronic plaque psoriasis; 504 h): 90%

CCOC(=O)CNCP(=O)(O)O [N-(phosphonomethyl)-glycine ethyl ester]
inhibition in vivo at 5 % (chronic plaque psoriasis; 336 h): 50%

CC(C)OC(=O)CNCP(=O)(O)O [N-(phosphonomethyl)-glycine isopropyl ester]
inhibition in vivo at 5 % (chronic plaque psoriasis; 168 h): 50%

CCCOC(=O)CNCP(=O)(O)O [N-(phosphonomethyl)-glycine propyl ester]
inhibition in vivo at 5 % (chronic plaque psoriasis; 336 h): 75%

O=C(O)CNCP(=O)(O)O [N-(phosphonomethyl)-glycine]
inhibition in vivo at 5 % [1, 4]: 50% | inhibition in vivo at 5 % ([1]; 336 h, 5% cream twice daily, after two weeks): 100%

O=P(O)(O)CNCCc1ccc(O)cc1 [N-(phosphonomethyl)-tyramine]
inhibition in vivo at 5 % ([1]; 168 h, 5% solution once every other day under occlusion, after one week): 75% | inhibition in vivo at 5 % (chronic plaque psoriasis; [5]): 50%

O=C(O)CN(CC(=O)O)CP(=O)(O)O [N-(phosphonomethyl)imino-diacetic acid]
inhibition in vivo at 5 % ([1]; 168 h): 50% | inhibition in vivo at 5 % ([1]; 336 h): 90%
